This is an account of results in ChEMBL document CHEMBL1201862, “PubChem BioAssay data set” (2004).

Test systems include PC-3; SF-295; HCT-15; MDA-N; HCT-116; A549; CCRF-CEM; NCI-H460; SW-620; M14; NCI-H522; SN12C; MDA-MB-435; SR; UACC-62; OVCAR-5; HOP-92; MCF7; U-251; EKVX.
Experiment in all cases: NCI tumour cell line growth inhibition, 48 h

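Cultured in 96-well plates, cells were exposed to test compound for 48 hours across five concentrations. At the GI50, growth is halved.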 Activity calls are given as the source filed them. Cut-off read from the data, not from the text of the source: active = GI50 up to about 1.1 µM and inactive = higher.

On to `CC(C)(CN1CCCCC1)C(=O)CC(SCCS(=O)(=O)O)c1ccc(Cl)cc1` (configuration not stated), for which the GI50 was 4.44 µM (inactive) in the test with PC-3; 0.925 µM (active) in the test with SF-295; 2.19 µM in the test with HCT-15; 2.81 µM (inactive) in the test with MDA-N; 3.03 µM (inactive) with HCT-116; 6.56 µM (inactive) with A549. Besides, the GI50 with CCRF-CEM is 2.74 µM (inactive); in the test with NCI-H460, 6.41 µM (inactive); in the test on SW-620 it was 4.1 µM (inactive); in the test with M14, 3.19 µM (inactive); in the test on NCI-H522, 2.51 µM (inactive); in the test with SN12C it was 4.56 µM (inactive). Besides, the GI50 in the test on MDA-MB-435 is 3.48 µM (inactive); with SR, 2.18 µM (inactive); with UACC-62 it was 4.21 µM (inactive); with OVCAR-5, 1.86 µM (inactive); with HOP-92 it was 2.26 µM (inactive); in the test on MCF7, 3.3 µM (inactive). For the same molecule, the GI50 in the test on U-251 was 10.5 µM (inactive); with EKVX, 3.67 µM (inactive).

As for `O=C(NCC(=O)N1CCCC1C(=O)OC(=O)C1CCCN1C(=O)CNC(=O)OCc1ccccc1)OCc1ccccc1` (configuration not stated), the GI50 in the test with PC-3 is 35.8 µM (inactive); in the test on SF-295 it was 22.1 µM (inactive); with HCT-15 it was 38.8 µM; in the test with MDA-N, 25.3 µM (inactive); in the test with HCT-116, 32.9 µM (inactive); in the test on A549, 44.8 µM (inactive). For the same molecule, the GI50 with CCRF-CEM was 35.9 µM (inactive); in the test with NCI-H460, 33.1 µM (inactive); with SW-620, 76.9 µM (inactive); in the test with M14, 17.7 µM (inactive); with NCI-H522 it was 52.7 µM (inactive); in the test on SN12C, 31.8 µM (inactive). Moreover, the GI50 was 22.5 µM (inactive) in the test with MDA-MB-435; 44.5 µM (inactive) in the test on SR; 14.7 µM (inactive) with UACC-62; 29.1 µM (inactive) with OVCAR-5; 31 µM (inactive) in the test on HOP-92; 21.1 µM (inactive) in the test on MCF7. Besides, the values for the GI50 in the test on U-251 and with EKVX were 41.8 µM (inactive) and 42.8 µM (inactive), respectively.

Consider `C=C1CC2(OC1=O)c1ccccc1C=Cc1ccccc12`, for which the GI50 in the test with PC-3 is 5.79 µM (inactive); in the test with SF-295, 18 µM (inactive); with HCT-15, 3.25 µM; in the test on MDA-N, 1.96 µM (inactive); in the test with HCT-116, 1.73 µM (inactive); in the test with A549 it was 9.42 µM (inactive). Further, the GI50 with CCRF-CEM is 0.697 µM (active); with NCI-H460, 11.2 µM (inactive); in the test on SW-620 it was 1.5 µM (inactive); in the test on M14 it was 4.25 µM (inactive); with NCI-H522 it was 1.76 µM (inactive); in the test on SN12C, 2.66 µM (inactive). In addition, the GI50 is 1.68 µM (inactive) with MDA-MB-435; 0.82 µM (active) in the test on SR; 5.13 µM (inactive) with UACC-62; 9.31 µM (inactive) with OVCAR-5; 1.61 µM (inactive) in the test with HOP-92; 2.3 µM (inactive) with MCF7. In addition, the results for the GI50 in the test with U-251 and in the test with EKVX were 8.04 µM (inactive) and 8.85 µM (inactive), respectively.

On to `COc1cc2cc(C(=O)N3CC(CCl)c4c3cc([N+](C)(C)Cc3ccc([N+](=O)[O-])n3C)c3ccccc43)[nH]c2c(OC)c1OC` (configuration not stated), for which the GI50 in the test with PC-3 was 0.184 µM (active); with SF-295, 1.31 µM (inactive); in the test with HCT-15, 1.58 µM; in the test on MDA-N, 2.13 µM (inactive); in the test on HCT-116, 1.48 µM (inactive); with A549, 0.074 µM (active). Besides, the GI50 was 1.77 µM (inactive) in the test on CCRF-CEM; 0.327 µM (active) with NCI-H460; 1.69 µM (inactive) in the test with SW-620; 3.61 µM (inactive) in the test on M14; 0.0638 µM (active) with NCI-H522; 4.54 µM (inactive) with SN12C. For the same molecule, the GI50 in the test on MDA-MB-435 is 3.79 µM (inactive); in the test with SR, < 0.0385 µM (active); in the test with UACC-62, 1.12 µM (inactive); in the test with OVCAR-5, 6.05 µM (inactive); in the test on HOP-92, 0.619 µM (active); in the test with MCF7, 1.46 µM (inactive). For the same molecule, the GI50 is 2.33 µM (inactive) with U-251 and 2.72 µM (inactive) in the test on EKVX.

Turning to `CSc1ccc(NC(=O)CCl)cc1`, the GI50 with PC-3 is 3.9 µM (inactive); in the test on SF-295, 2.58 µM (inactive); with HCT-15, 5.97 µM; in the test on MDA-N, 4.84 µM (inactive); with HCT-116, 3.03 µM (inactive); in the test with A549, 2.44 µM (inactive). Further, the GI50 in the test on CCRF-CEM was 2.43 µM (inactive); in the test on NCI-H460, 2.41 µM (inactive); with SW-620, 8.32 µM (inactive); with M14, 1.92 µM (inactive); with NCI-H522, 1.95 µM (inactive); with SN12C, 6.82 µM (inactive). In addition, the GI50 with MDA-MB-435 was 4.03 µM (inactive); in the test with SR, 2.7 µM (inactive); with UACC-62 it was 1.85 µM (inactive); in the test on OVCAR-5, 3.33 µM (inactive); in the test with HOP-92, 2.63 µM (inactive); in the test with MCF7, 3.51 µM (inactive). The GI50 in the test with U-251 is 5.19 µM (inactive); with EKVX, > 10 µM (inactive).

For the molecule `C=Cc1c(C)c(OC)cc2c1Oc1ccc(OC)c(C)c1CC2`, the GI50 in the test on PC-3 is 52.6 µM (inactive); in the test with SF-295, > 100 µM (inactive); with HCT-15, above 100 µM; in the test on MDA-N it was > 100 µM (inactive); in the test with HCT-116, > 100 µM (inactive); in the test on A549, > 100 µM (inactive). Moreover, the GI50 in the test on CCRF-CEM was > 100 µM (inactive); in the test with NCI-H460, > 100 µM (inactive); in the test with SW-620 it was > 100 µM (inactive); with M14 it was > 100 µM (inactive); in the test with NCI-H522, 88.5 µM (inactive); in the test with SN12C, > 100 µM (inactive). Further, the GI50 in the test on MDA-MB-435 was 76 µM (inactive); in the test on SR, > 100 µM (inactive); in the test on UACC-62 it was > 100 µM (inactive); with OVCAR-5, > 100 µM (inactive); in the test with HOP-92 it was > 100 µM (inactive); in the test on MCF7, > 100 µM (inactive). The GI50 is > 100 µM (inactive) in the test with U-251 and 45.7 µM (inactive) in the test with EKVX.

Take `C[C@]12C=CC(=O)C=C1CC[C@@H]1[C@@H]2C(=O)C[C@@]2(C)[C@H]1CC[C@]2(O)C(=O)CO` [PREDNISONE]: the GI50 was > 100 µM (inactive) with PC-3; > 100 µM (inactive) with SF-295; above 100 µM with HCT-15; > 100 µM (inactive) in the test with MDA-N; 59.8 µM (inactive) with HCT-116; > 100 µM (inactive) with A549. The GI50 in the test on CCRF-CEM, in the test with NCI-H460, in the test on SW-620, in the test with M14, with NCI-H522 and in the test on SN12C was > 100 µM (inactive) each time. Also, the GI50 in the test with MDA-MB-435, in the test on SR, in the test with UACC-62, with OVCAR-5, in the test with HOP-92 and in the test with MCF7 was > 100 µM (inactive) throughout. Besides, the GI50 with U-251 and in the test with EKVX was > 100 µM (inactive) throughout.

For `CCSc1n/c(=C\c2ccco2)c2nncn12`, the GI50 is > 100 µM (inactive) in the test on PC-3; > 100 µM (inactive) with SF-295; above 100 µM in the test with HCT-15; > 100 µM (inactive) with MDA-N; > 100 µM (inactive) in the test with HCT-116; > 100 µM (inactive) with A549. For the same molecule, the GI50 with CCRF-CEM, in the test on SW-620, in the test with M14, with NCI-H522, in the test with SN12C and in the test with MDA-MB-435 was > 100 µM (inactive) each time. Besides, the GI50 with SR was > 100 µM (inactive); in the test on UACC-62 it was > 100 µM (inactive); in the test on OVCAR-5, > 100 µM (inactive); in the test on HOP-92 it was 40.7 µM (inactive); with MCF7, > 100 µM (inactive); in the test on U-251 it was > 100 µM (inactive). In addition, the GI50 in the test with EKVX was > 100 µM (inactive).

Consider `COc1ccccc1Cn1c2c(c3c(C(=O)NCCN(C)C)c(O)ccc31)C(=O)c1ccccc1C2=O`, for which the GI50 in the test on PC-3 is 2.09 µM (inactive); in the test on SF-295, 1.87 µM (inactive); in the test with HCT-15 it was 1.94 µM; with MDA-N, 1.4 µM (inactive); with HCT-116 it was 0.759 µM (active); in the test with A549, 1.82 µM (inactive). The GI50 was 0.298 µM (active) in the test with CCRF-CEM; 2.09 µM (inactive) with NCI-H460; 1.32 µM (inactive) in the test with M14; 1.69 µM (inactive) with NCI-H522; 1.94 µM (inactive) in the test on SN12C; 1.69 µM (inactive) in the test on MDA-MB-435. Moreover, the GI50 is 0.291 µM (active) with SR; 1.83 µM (inactive) in the test with UACC-62; 1.94 µM (inactive) in the test with OVCAR-5; 1.17 µM (inactive) in the test on HOP-92; 1.47 µM (inactive) in the test on MCF7; 1.91 µM (inactive) with U-251. Also, the GI50 in the test with EKVX was 1.82 µM (inactive).

Regarding `COC(OC)[C@@H]1OC[C@@H](O)[C@@H]1n1cnc2c(N)ncnc21`, the GI50 is > 100 µM (inactive) with PC-3; > 100 µM (inactive) with SF-295; above 100 µM in the test with HCT-15; > 100 µM (inactive) in the test with MDA-N; > 100 µM (inactive) in the test on HCT-116; > 100 µM (inactive) in the test on CCRF-CEM. The GI50 with NCI-H460, in the test on SW-620, in the test on M14, with NCI-H522, in the test on SN12C and with MDA-MB-435 was > 100 µM (inactive) throughout. Moreover, the GI50 in the test on SR, with UACC-62, in the test with OVCAR-5, with HOP-92, with MCF7 and with U-251 was > 100 µM (inactive) in each case. Also, the GI50 with EKVX is > 100 µM (inactive).
